Reference: the supplement of paper PMC10733146

Tests used:
Test in all cases: viability relative to DMSO control (fraction); higher = less drug effect (more viable cells)
Conditions in all cases: 48 h
Pralatrexate = compound: C#CCC(Cc1cnc2nc(N)nc(N)c2n1)c1ccc(C(=O)N[C@@H](CCC(=O)O)C(=O)O)cc1 [Pralatrexate]
How it was run: (§1)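 In 384-well plates with compounds pre-plated at five concentrations (one well per concentration), primary mononuclear tumour cells were plated at 4 × 10^4 cells per well. The cells came from blood or bone marrow by Ficoll isolation or from processed lymph node, and were used fresh or cryopreserved. Culture ran for 48 h at 37 °C and 5% CO2 in RPMI-1640 containing penicillin/streptomycin, L-glutamine and human serum. Viability was read as CellTiter-Glo luminescence, normalised to the median of 16 inner DMSO wells.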

Pacritinib = compound: C1=N/C2=N/c3ccc(OCCN4CCCC4)c(c3)COC/C=C/COCc3cccc(c3)C(=C1)N2 [Pacritinib]
How it was run: as §1

AG-221 (Enasidinib) = compound: CC(C)(O)CNc1nc(Nc2ccnc(C(F)(F)F)c2)nc(-c2cccc(C(F)(F)F)n2)n1 [AG-221 (Enasidinib)]
How it was run: as §1

ERK5-IN-1 = compound: CCOc1cc(C(=O)N2CCC(N3CCN(C)CC3)CC2)ccc1Nc1ncc2c(n1)N(C1CCCC1)c1ccccc1C(=O)N2C [ERK5-IN-1]
How it was run: as §1

Birinapant = compound: CC[C@H](NC(=O)[C@H](C)NC)C(=O)N1C[C@@H](O)C[C@H]1Cc1c(-c2[nH]c3cc(F)ccc3c2C[C@@H]2C[C@H](O)CN2C(=O)[C@H](CC)NC(=O)[C@H](C)NC)[nH]c2cc(F)ccc12 [Birinapant]
How it was run: as §1

Ribociclib = compound: CN(C)C(=O)c1cc2cnc(Nc3ccc(N4CCNCC4)cn3)nc2n1C1CCCC1 [Ribociclib]
How it was run: as §1

Obatoclax mesylate = compound: COC1=CC(c2cc3ccccc3[nH]2)=N/C1=C\c1[nH]c(C)cc1C [Obatoclax mesylate]
How it was run: as §1

Tozasertib = compound: Cc1cc(Nc2cc(N3CCN(C)CC3)nc(Sc3ccc(NC(=O)C4CC4)cc3)n2)n[nH]1 [Tozasertib]
How it was run: as §1

BEZ235 = compound: Cn1c(=O)n(-c2ccc(C(C)(C)C#N)cc2)c2c3cc(-c4cnc5ccccc5c4)ccc3ncc21 [BEZ235]
How it was run: as §1

AZD7762 = compound: NC(=O)Nc1cc(-c2cccc(F)c2)sc1C(=O)N[C@H]1CCCNC1 [AZD7762]
How it was run: as §1

Iniparib = compound: NC(=O)c1ccc(I)c([N+](=O)[O-])c1 [Iniparib]
How it was run: as §1

Cladribine = compound: Nc1nc(Cl)nc2c1ncn2[C@H]1C[C@H](O)[C@@H](CO)O1 [Cladribine]
How it was run: as §1

8-Azaguanin = compound: Nc1nc2n[nH]nc2c(=O)[nH]1 [8-Azaguanin]
How it was run: as §1

Vorinostat = compound: O=C(CCCCCCC(=O)Nc1ccccc1)NO [Vorinostat]
How it was run: as §1

[1] = compound: OCc1ccc(-c2ccc(-c3ccc(CO)s3)o2)s1
How it was run: as §1

primary ALL patient cells (S088) was tested, and the viability (Pralatrexate; 0.024 µM) was 1.07, the viability (Pralatrexate; 0.12 µM) was 0.937 and the viability (Pralatrexate; 0.6 µM) was 0.927. It also gave a viability (Pralatrexate; 3 µM) of 0.991, a viability (Pralatrexate; 15 µM) of 0.917 and a viability (Pacritinib; 0.024 µM) of 0.868. It also gave a viability (Pacritinib; 0.12 µM) of 0.843, a viability (Pacritinib; 0.6 µM) of 0.707 and a viability (Pacritinib; 3 µM) of 0.287. The viability (Pacritinib; 15 µM) was 0.0205, the viability (AG-221 (Enasidinib); 0.024 µM) was 0.115 and the viability (AG-221 (Enasidinib); 0.12 µM) was 0.151. It also gave a viability (AG-221 (Enasidinib); 0.6 µM) of 0.435, a viability (AG-221 (Enasidinib); 3 µM) of 0.457 and a viability (AG-221 (Enasidinib); 15 µM) of 0.661. For the same test system, the viability (ERK5-IN-1; 0.024 µM) was 0.841, the viability (ERK5-IN-1; 0.12 µM) was 0.851 and the viability (ERK5-IN-1; 0.6 µM) was 0.472. For the same test system, the viability (ERK5-IN-1; 3 µM) was 0.39, the viability (ERK5-IN-1; 15 µM) was 0.114 and the viability (Birinapant; 0.0008 µM) was 0.577. The viability (Birinapant; 0.004 µM) was 0.477, the viability (Birinapant; 0.02 µM) was 0.379 and the viability (Birinapant; 0.1 µM) was 0.316. It also gave a viability (Birinapant; 0.5 µM) of 0.229, a viability (Ribociclib; 0.024 µM) of 0.713 and a viability (Ribociclib; 0.12 µM) of 0.679. It also gave a viability (Ribociclib; 0.6 µM) of 0.621, a viability (Ribociclib; 3 µM) of 0.487 and a viability (Ribociclib; 15 µM) of 0.357. For the same test system, the viability (Obatoclax mesylate; 0.024 µM) was 0.977, the viability (Obatoclax mesylate; 0.12 µM) was 0.804 and the viability (Obatoclax mesylate; 0.6 µM) was 0.582. It also gave a viability (Obatoclax mesylate; 3 µM) of 0.262, a viability (Obatoclax mesylate; 15 µM) of 0.0738 and a viability (Tozasertib; 0.024 µM) of 0.727. It also gave a viability (Tozasertib; 0.12 µM) of 0.653, a viability (Tozasertib; 0.6 µM) of 0.501 and a viability (Tozasertib; 3 µM) of 0.382. For the same test system, the viability (Tozasertib; 15 µM) was 0.286, the viability (BEZ235; 0.024 µM) was 0.751 and the viability (BEZ235; 0.12 µM) was 0.644. It also gave a viability (BEZ235; 0.6 µM) of 0.529, a viability (BEZ235; 3 µM) of 0.427 and a viability (BEZ235; 15 µM) of 0.254. For the same test system, the viability (AZD7762; 0.024 µM) was 0.488, the viability (AZD7762; 0.12 µM) was 0.38 and the viability (AZD7762; 0.6 µM) was 0.256. The viability (AZD7762; 3 µM) was 0.227, the viability (AZD7762; 15 µM) was 0.189 and the viability (Iniparib; 0.024 µM) was 1.15. It also gave a viability (Iniparib; 0.12 µM) of 1.09, a viability (Iniparib; 0.6 µM) of 1.04 and a viability (Iniparib; 3 µM) of 1. It also gave a viability (Iniparib; 15 µM) of 0.898, a viability (Cladribine; 0.024 µM) of 0.397 and a viability (Cladribine; 0.12 µM) of 0.178. The viability (Cladribine; 0.6 µM) was 0.122, the viability (Cladribine; 3 µM) was 0.0996 and the viability (Cladribine; 15 µM) was 0.0732. It also gave a viability (8-Azaguanin; 0.032 µM) of 0.783, a viability (8-Azaguanin; 0.16 µM) of 0.765 and a viability (8-Azaguanin; 0.8 µM) of 0.346. It also gave a viability (8-Azaguanin; 4 µM) of 0.269, a viability (8-Azaguanin; 20 µM) of 0.174 and a viability (Vorinostat; 0.016 µM) of 0.991. For the same test system, the viability (Vorinostat; 0.08 µM) was 0.777, the viability (Vorinostat; 0.4 µM) was 0.366 and the viability (Vorinostat; 2 µM) was 0.157. The viability (Vorinostat; 10 µM) was 0.109, the viability ([1]; 0.024 µM) was 0.359 and the viability ([1]; 0.12 µM) was 0.306. It also gave a viability ([1]; 0.6 µM) of 0.205, a viability ([1]; 3 µM) of 0.128 and a viability ([1]; 15 µM) of 0.0223.

Work on primary AML patient cells (S002) yielded a viability (Pralatrexate; 0.024 µM) of 1.02, a viability (Pralatrexate; 0.12 µM) of 0.828 and a viability (Pralatrexate; 0.6 µM) of 0.79. The viability (Pralatrexate; 3 µM) was 1.07, the viability (Pralatrexate; 15 µM) was 0.928 and the viability (Pacritinib; 0.024 µM) was 0.955. The viability (Pacritinib; 0.12 µM) was 0.884, the viability (Pacritinib; 0.6 µM) was 0.814 and the viability (Pacritinib; 3 µM) was 0.421. The viability (Pacritinib; 15 µM) was 0.274, the viability (AG-221 (Enasidinib); 0.024 µM) was 0.784 and the viability (AG-221 (Enasidinib); 0.12 µM) was 0.841. The viability (AG-221 (Enasidinib); 0.6 µM) was 0.857, the viability (AG-221 (Enasidinib); 3 µM) was 0.8 and the viability (AG-221 (Enasidinib); 15 µM) was 0.693. The viability (ERK5-IN-1; 0.024 µM) was 1.19, the viability (ERK5-IN-1; 0.12 µM) was 1.07 and the viability (ERK5-IN-1; 0.6 µM) was 0.733. For the same test system, the viability (ERK5-IN-1; 3 µM) was 0.421, the viability (ERK5-IN-1; 15 µM) was 0.276 and the viability (Birinapant; 0.0008 µM) was 0.8. It also gave a viability (Birinapant; 0.004 µM) of 0.783, a viability (Birinapant; 0.02 µM) of 0.66 and a viability (Birinapant; 0.1 µM) of 0.478. For the same test system, the viability (Birinapant; 0.5 µM) was 0.322, the viability (Ribociclib; 0.024 µM) was 0.981 and the viability (Ribociclib; 0.12 µM) was 1.1. For the same test system, the viability (Ribociclib; 0.6 µM) was 1.03, the viability (Ribociclib; 3 µM) was 1.06 and the viability (Ribociclib; 15 µM) was 0.736. It also gave a viability (Obatoclax mesylate; 0.024 µM) of 0.904, a viability (Obatoclax mesylate; 0.12 µM) of 0.841 and a viability (Obatoclax mesylate; 0.6 µM) of 0.497. For the same test system, the viability (Obatoclax mesylate; 3 µM) was 0.322, the viability (Obatoclax mesylate; 15 µM) was 0.142 and the viability (Tozasertib; 0.024 µM) was 1.09. The viability (Tozasertib; 0.12 µM) was 0.779, the viability (Tozasertib; 0.6 µM) was 0.738 and the viability (Tozasertib; 3 µM) was 0.647. It also gave a viability (Tozasertib; 15 µM) of 0.474, a viability (BEZ235; 0.024 µM) of 0.979 and a viability (BEZ235; 0.12 µM) of 0.963. The viability (BEZ235; 0.6 µM) was 0.868, the viability (BEZ235; 3 µM) was 0.853 and the viability (BEZ235; 15 µM) was 0.409. It also gave a viability (AZD7762; 0.024 µM) of 0.79, a viability (AZD7762; 0.12 µM) of 0.964 and a viability (AZD7762; 0.6 µM) of 0.647. For the same test system, the viability (AZD7762; 3 µM) was 0.526, the viability (AZD7762; 15 µM) was 0.38 and the viability (Iniparib; 0.024 µM) was 1.07. For the same test system, the viability (Iniparib; 0.12 µM) was 1.17, the viability (Iniparib; 0.6 µM) was 0.968 and the viability (Iniparib; 3 µM) was 1.04. It also gave a viability (Iniparib; 15 µM) of 0.831, a viability (Cladribine; 0.024 µM) of 0.456 and a viability (Cladribine; 0.12 µM) of 0.412. For the same test system, the viability (Cladribine; 0.6 µM) was 0.358, the viability (Cladribine; 3 µM) was 0.365 and the viability (Cladribine; 15 µM) was 0.349. The viability (8-Azaguanin; 0.032 µM) was 1.06, the viability (8-Azaguanin; 0.16 µM) was 1.01 and the viability (8-Azaguanin; 0.8 µM) was 1.01. For the same test system, the viability (8-Azaguanin; 4 µM) was 0.827, the viability (8-Azaguanin; 20 µM) was 0.376 and the viability (Vorinostat; 0.016 µM) was 1.08. For the same test system, the viability (Vorinostat; 0.08 µM) was 0.947, the viability (Vorinostat; 0.4 µM) was 0.663 and the viability (Vorinostat; 2 µM) was 0.291. It also gave a viability (Vorinostat; 10 µM) of 0.24, a viability ([1]; 0.024 µM) of 0.897 and a viability ([1]; 0.12 µM) of 0.665. The viability ([1]; 0.6 µM) was 0.411, the viability ([1]; 3 µM) was 0.283 and the viability ([1]; 15 µM) was 0.183.
